In brackets after ≈: the same amount, converted by molar mass. Where two headings read alike, the source gives them in different places.
Experiments:
[1] = test system: Candida albicans (ATCC90028); assay: Broth dilution anti-fungal susceptibility (NCCLS M27-A2), MIC; type: cell-based; details: for MIC: Candida albicans
Method: (§1) The anti-fungal activity of the compounds according to the invention were evaluated against Candida albicans (ATCC90028), Cryptococcus neoformans (ATCC32045), and Aspergillus fumigatus (ATCC13073) according to NCCLS guidelines (NCCLS reference method for broth dilution anti-fungal susceptibility testing of yeasts; approved standard-second edition, M27-A2, National Committee for Clinical Laboratory Standards, Villanova, Pa. 2003; and NCCLS reference method for broth dilution anti-fungal susceptibility testing of filamentous fungi; approved standard, M38-A, National Committee for Clinical Laboratory Standards, Villanova, Pa. 2002).
(§2) The medium required for the evaluation of anti-fungal activity was prepared as follows. RPMI 1640 broth+MOPS, pH adjusted and filter sterilized. Sabouraud Dextrose Agar (SDA) plates were used for growing fungi.
(§3) All test or candidate compounds were prepared as 5 mg/ml stock solutions in DMSO and further diluted according to the NCCLS guidelines with sterile water or appropriate diluent. A working stock of 256 μg/ml was used to prepare 1:2 serial dilutions in 96-well plates.
(§4) The inoculums of fungi were prepared by making a direct sterile water suspension of colonies/spores from SDA plates. 0.1% Tween 20 was used for A. fumigatus for better dispersal of spores in suspension. For C. albicans and C. neoformans overnight cultures were used. A. fumigatus required longer incubation. Each fungal suspension was adjusted to read between 70 and 75% transmittance at 530 nm (0.5 McFarland Standard). These suspensions were further diluted 1/1000 in appropriate broth for inoculating the 96-well plates.
(§5) All plates were incubated at 35° C. for the following times: 18 hours to 24 hours for C. albicans, 48 hours for A. fumigatus, and 48 to 72 hours for C. neoformans.

Candida krusei ATCC6258 = assay: Broth dilution anti-fungal susceptibility, MIC (as in Example 24); type: cell-based; details: for MIC: Pichia kudriavzevii, ATCC6258, read-out: MIC C. krusei
brine shrimp = type: in vivo; details: for % BL (brine shrimp lethality): at 100 μg/ml
Method: The general in vitro toxicity of these compounds can be tested using the Brine Shrimp Lethality assay, as described in Mclaughlin, J. L. in Methods in Plant Biochemistry. Ed. K. Hostettmann, Academic Press, London, 1991; Vol. 6, pp. 1-32. Typically, candidate compounds are diluted in seawater to a suitable concentration and added to second instar larvae of Artemia salina. After a suitable period of time, for example 24 hours, the survivors are counted. In vitro acute toxicity testing of a compound of Formula I can also be performed using mammalian cell lines (see, for example, Ekwall, B., Ann. N.Y. Acad. Sci., (1983) 407:64-77). Selection of an appropriate cell line is dependent on the potential application of the candidate compound and can be readily determined by one skilled in the art.
To test the general toxicity of these compounds, Brine Shrimp Lethality assay was carried out according to Mclaughlin, J. L. in Methods in Plant Biochemistry. Ed. K. Hostettmann, Academic Press, London, 1991; Vol. 6, pp. 1-32. The compounds were tested at 100 μg/ml.

[2] = test system: Cryptococcus neoformans (ATCC32045); assay: Broth dilution anti-fungal susceptibility (NCCLS M27-A2), MIC; type: cell-based; details: Table 1, MICs read at 80% inhibition, 35° C., 48 to 72 hours, tested 0.12 to 64 μg/ml
Method: as §1, §2, §3, §4, §5

[3] = test system: Aspergillus fumigatus (ATCC13073); assay: Broth dilution anti-fungal susceptibility of filamentous fungi (NCCLS M38-A), MIC; type: cell-based; details: Table 1, MICs read at 80% inhibition, 35° C., 48 hours, tested 0.12 to 64 μg/ml
Method: as §1, §2, §3, §4, §5

[4] = Table 3 (Example 26), MICs read at 80% inhibition, 0.12 to 64 μg/ml
[5] = ATCC90028, Table 3 (Example 26, additional testing), MICs read at 80% inhibition, 0.12 to 64 μg/ml, read-out: MIC C. albicans
[6] = ATCC90028, Table 1, MICs read at 80% inhibition, 35° C., 18 to 24 hours, tested 0.12 to 64 μg/ml
[7] = comparison in words, from Table 3

Compound | MIC C. albicans ([1]; Table 3 (Example 26, additional testing), MICs read at 80% inhibition, 0.12 to 64 μg/ml) [µg/mL] | MIC C. krusei (Candida krusei ATCC6258; [4]) [µg/mL] | MIC [1, 6] [µg/mL] | MIC [2] [µg/mL] | MIC [3] [µg/mL] | MIC [1, 5] [µg/mL] | % BL (brine shrimp lethality) (brine shrimp) [%] | MIC (Candida krusei ATCC6258; [4]) [µg/mL] | inhibitory activity against C. albicans compared to chlorogenic acid [1, 7] | toxicity on brine shrimp compared to chlorogenic acid (brine shrimp; comparison in words, from Table 2) | inhibitory activity against C. krusei compared to chlorogenic acid (Candida krusei ATCC6258; [7])
C[C@@H]1[C@H](O)[C@@H](C)/C=C/C=C/C=C/C=C/C=C/C=C/C=C/[C@H](O[C@@H]2O[C@H](C)[C@@H](O)[C@H](N)[C@@H]2O)C[C@@H]2O[C@](O)(C[C@@H](O)C[C@@H](O)[C@H](O)CC[C@@H](O)C[C@@H](O)CC(=O)O[C@H]1C)C[C@H](O)[C@H]2C(=O)O [Amphotericin B, reference compound] | 0.5 (≈ 0.541 µM) | 1 (≈ 1.08 µM) | – | – | – | – | – | – | – | – | –
O=C(/C=C/c1ccc(O)c(O)c1)O[C@@H]1C[C@](O)(C(=O)O)C[C@@H](O)[C@H]1O [Chlorogenic acid] | – | – | – | – | – | > 64 | 100 | > 64 | – | – | –
CCCCCCCCOc1ccc(NC(=O)C2(O)CC(OC(=O)/C=C/c3ccc(O)c(O)c3)C3OC(C)(C)OC3C2)cc1 (centres unmarked) [Compound 1] | – | – | 16 (≈ 26.8 µM) | 2 (≈ 3.35 µM) | > 64 | – | 100.0 | – | – | – | –
CCCCCCCCOc1ccc(NC(=O)C2(O)CC(O)C(O)C(OC(=O)/C=C/c3ccc(O)c(O)c3)C2)cc1 (centres unmarked) [Compound 2] | – | – | 8 (≈ 14.3 µM) | 2 (≈ 3.59 µM) | > 64 | – | 50.0 | – | – | – | –
CCCCCCCCOc1ccc(NC(=O)C(COC(C)(C)C)NC(=O)C2(O)CC(OC(=O)/C=C/c3ccc(O)c(O)c3)C3OC(C)(C)OC3C2)cc1 (centres unmarked) [Compound 3] | – | – | 32 (≈ 43.2 µM) | 2 (≈ 2.7 µM) | > 64 | – | 31.3 | – | – | – | –
CCCCCCCCOc1ccc(NC(=O)C(NC(=O)C2(O)CC(OC(=O)/C=C/c3ccc(O)c(O)c3)C3OC(C)(C)OC3C2)C(C)OC(C)(C)C)cc1 (centres unmarked) [Compound 4] | – | – | 32 (≈ 42.4 µM) | 4 (≈ 5.3 µM) | > 64 | – | 6.2 | – | – | – | –
CCCCCCCCOc1ccc(NC(=O)C(CC(=O)OC(C)(C)C)NC(=O)C2(O)CC(OC(=O)/C=C/c3ccc(O)c(O)c3)C3OC(C)(C)OC3C2)cc1 (centres unmarked) [Compound 5] | – | – | > 64 | 2 (≈ 2.6 µM) | > 64 | – | 56.2 | – | – | – | –
CCCCCCCCOc1ccc(NC(=O)C(CO)NC(=O)C2(O)CC(O)C(O)C(OC(=O)/C=C/c3ccc(O)c(O)c3)C2)cc1 (centres unmarked) [Compound 11] | – | – | > 64 | 4 (≈ 6.2 µM) | > 64 | – | 18.8 | – | – | – | –
CCCCCCCCOc1ccc(NC(=O)C(CC(=O)O)NC(=O)C2(O)CC(O)C(O)C(OC(=O)/C=C/c3ccc(O)c(O)c3)C2)cc1 (centres unmarked) [Compound 13] | – | – | 64 (≈ 95.1 µM) | 16 (≈ 23.8 µM) | > 64 | – | 6.3 | – | – | – | –
CCCCCCCCOc1ccc(NC(=O)C(CCCN)NC(=O)C2(O)CC(O)C(O)C(OC(=O)/C=C/c3ccc(O)c(O)c3)C2)cc1 (centres unmarked) [Compound 14] | – | – | 4 (≈ 5.95 µM) | 1 (≈ 1.49 µM) | 16 (≈ 23.8 µM) | – | 37.5 | – | – | – | –

Continued, in another order:

MIC C. albicans ([1]; Table 3 (Example 26, additional testing), MICs read at 80% inhibition, 0.12 to 64 μg/ml) [µg/mL] | MIC C. krusei (Candida krusei ATCC6258; [4]) [µg/mL] | MIC [1, 6] [µg/mL] | MIC [2] [µg/mL] | MIC [3] [µg/mL] | Compound | MIC [1, 5] [µg/mL] | % BL (brine shrimp lethality) (brine shrimp) [%] | MIC (Candida krusei ATCC6258; [4]) [µg/mL] | inhibitory activity against C. albicans compared to chlorogenic acid [1, 7] | toxicity on brine shrimp compared to chlorogenic acid (brine shrimp; comparison in words, from Table 2) | inhibitory activity against C. krusei compared to chlorogenic acid (Candida krusei ATCC6258; [7])
– | – | > 64 | 2 (≈ 2.46 µM) | > 64 | CCCCCCCCOc1ccc(NC(=O)C(CCCNC(=O)OC(C)(C)C)NC(=O)C2(O)CC(OC(=O)/C=C/c3ccc(O)c(O)c3)C3OC(C)(C)OC3C2)cc1 (centres unmarked) [Compound 6] | – | 12.5 | – | – | – | –
– | – | 4 (≈ 5.71 µM) | 2 (≈ 2.85 µM) | > 64 | CCCCCCCCOc1ccc(NC(=O)C(COC(C)(C)C)NC(=O)C2(O)CC(O)C(O)C(OC(=O)/C=C/c3ccc(O)c(O)c3)C2)cc1 (centres unmarked) [Compound 7] | – | 31.1 | – | – | – | –
– | – | 2 (≈ 2.8 µM) | 1 (≈ 1.4 µM) | > 64 | CCCCCCCCOc1ccc(NC(=O)C(NC(=O)C2(O)CC(O)C(O)C(OC(=O)/C=C/c3ccc(O)c(O)c3)C2)C(C)OC(C)(C)C)cc1 (centres unmarked) [Compound 8] | 4 (≈ 5.6 µM) | 50.0 | 2 (≈ 2.8 µM) | more potent inhibitory activity | less toxicity | more potent inhibitory activity
– | – | 2 (≈ 2.74 µM) | 2 (≈ 2.74 µM) | > 64 | CCCCCCCCOc1ccc(NC(=O)C(CC(=O)OC(C)(C)C)NC(=O)C2(O)CC(O)C(O)C(OC(=O)/C=C/c3ccc(O)c(O)c3)C2)cc1 (centres unmarked) [Compound 9] | – | 37.5 | – | – | – | –
– | – | 2 (≈ 2.59 µM) | 1 (≈ 1.3 µM) | > 64 | CCCCCCCCOc1ccc(NC(=O)C(CCCNC(=O)OC(C)(C)C)NC(=O)C2(O)CC(O)C(O)C(OC(=O)/C=C/c3ccc(O)c(O)c3)C2)cc1 (centres unmarked) [Compound 10] | – | 25.0 | – | – | – | –
– | – | > 64 | 4 (≈ 5.17 µM) | > 64 | CCCCCCCCOc1ccc(NC(=O)C(CCCNC(=O)OC(C)(C)C)NC(=O)C2(O)CC(O)C(O)C(OC(=O)CCc3ccc(O)c(O)c3)C2)cc1 (centres unmarked) [Compound 15] | – | 21.1 | – | – | – | –
– | – | 16 (≈ 23.7 µM) | 8 (≈ 11.9 µM) | 64 (≈ 95 µM) | CCCCCCCCOc1ccc(NC(=O)C(CCCN)NC(=O)C2(O)CC(O)C(O)C(OC(=O)CCc3ccc(O)c(O)c3)C2)cc1 (centres unmarked) [Compound 16] | – | 10.5 | – | – | – | –
– | – | > 64 | > 64 | > 64 | CCCCCCCCOc1ccc(NC(=O)C(CCCNC(=O)OC(C)(C)C)NC(=O)C2(O)CC(OC(=O)/C=C/c3ccc(O)cc3)C3OC(C)(C)OC3C2)cc1 (centres unmarked) [Compound 17] | – | 0.0 | – | – | – | –
– | – | > 64 | > 64 | > 64 | CCCCCCCCOc1ccc(NC(=O)C(CCCNC(=O)OC(C)(C)C)NC(=O)C2(O)CC(O)C(O)C(OC(=O)/C=C/c3ccc(O)cc3)C2)cc1 (centres unmarked) [Compound 18] | – | 31.6 | – | – | – | –
– | – | 8 (≈ 12.2 µM) | 4 (≈ 6.1 µM) | 32 (≈ 48.8 µM) | CCCCCCCCOc1ccc(NC(=O)C(CCCN)NC(=O)C2(O)CC(O)C(O)C(OC(=O)/C=C/c3ccc(O)cc3)C2)cc1 (centres unmarked) [Compound 19] | – | 100 | – | – | – | –
– | – | > 64 | > 64 | > 64 | CCCCCCCCOc1ccc(NC(=O)C(CCCNC(=O)OC(C)(C)C)NC(=O)C2(O)CC(OC(=O)C(CCc3ccc(O)cc3)NC(=O)OCC3c4ccccc4-c4ccccc43)C3OC(C)(C)OC3C2)cc1 (centres unmarked) [Compound 20] | – | 10.5 | – | – | – | –
– | – | > 64 | > 64 | > 64 | CCCCCCCCOc1ccc(NC(=O)C(CCCNC(=O)OC(C)(C)C)NC(=O)C2(O)CC(OC(=O)C(N)CCc3ccc(O)cc3)C3OC(C)(C)OC3C2)cc1 (centres unmarked) [Compound 21] | – | 47.7 | – | – | – | –
– | – | > 64 | 4 (≈ 5.08 µM) | > 64 | CCCCCCCCOc1ccc(NC(=O)C(CCCNC(=O)OC(C)(C)C)NC(=O)C2(O)CC(O)C(O)C(OC(=O)C(N)CCc3ccc(O)cc3)C2)cc1 (centres unmarked) [Compound 22] | – | 36.8 | – | – | – | –
– | – | 64 (≈ 93.2 µM) | 2 (≈ 2.91 µM) | > 64 | CCCCCCCCOc1ccc(NC(=O)C(CCCN)NC(=O)C2(O)CC(O)C(O)C(OC(=O)C(N)CCc3ccc(O)cc3)C2)cc1 (centres unmarked) [Compound 23] | – | 73.7 | – | – | – | –
– | – | 0.25 (≈ 0.816 µM) | 0.5 (≈ 1.63 µM) | > 64 | OC(Cn1cncn1)(Cn1cncn1)c1ccc(F)cc1F [Fluconazole, reference compound] | – | – | – | – | – | –

— patent US20100311827A1, “Chlorogenic acid derivatives and their use as anti-fungal agents” (priority 2006, published 2010)
